Laboratory results reported in US8630703B2, “Treatment utilizing hydrophobic weak bases chemotherapeutic agents and illumination” (Technion Research & Development Foundation Limited, priority 2011, dated 2014).
“And” between values parts separate entries of the source, which are not always exact repeats. Equal entries are not always repeated.

Legend:
A549/K1.5 cells [1] = assay: XTT cytotoxicity assay with and without illumination; type: cell-based, Human
Protocol: Human non-small cell lung cancer A549 cells and their ABCG2-overexpressing MDR (multi-drug resistant) A549/K1.5 sub-line; ovarian carcinoma cell line 2008 and its stable MRP1-transfectant 2008/MRP1; and human non-small lung cancer cell line SW1573 and its ABCB1-overexpressing subline SW1573/2R160) were maintained in RPMI-1640 medium supplemented with 10% fetal bovine serum, 2 mM glutamine, 100 μg/ml penicillin and streptomycin (Biological Industries, Beth-Haemek, Israel) in a humid atmosphere containing 5% CO2 at 37° C.
(§7) Parental cells and their MDR (multi-drug resistant) sub-lines were seeded in 96-well plates (2×10^4 cells/well in 90 μl growth medium/well). […] Following incubation for 2 hours, the drug-containing medium was replaced by drug-free medium. The cells were then placed on an illuminator plate (Model 460, thin line series, S&S X-Ray Products Inc., Brooklyn, N.Y.) for 1 hour, thereby achieving a light dose of 5 J/cm^2 white light. After illumination, plates were further incubated for an additional 24 hours.
Cell viability was determined using an XTT (2,3-bis-(2-methoxy-4-nitro-5-sulfophenyl)-2H-tetrazolium-5-carboxanilide) Cell Proliferation Kit (Biological Industries). The drug concentrations required to inhibit cell growth by 50% (i.e., IC50 values) were determined from the cell survival curves in the absence and in the presence of illumination. Results are presented as mean values of at least three independent experiments.

A549 cells [2] = assay: XTT cytotoxicity of C-1330 after chloroquine treatment, with and without illumination; type: cell-based, Human
Protocol: A549 cells were seeded in 96-well plates at a concentration of 500 cells/well for the 48 hour chloroquine treatment, or at a concentration of 1000 cells/well for the 24 hour chloroquine treatment, in a total volume of 100 μl of medium per well. Following an overnight incubation, chloroquine was then added at the indicated concentrations for 24 or 48 hours. Lysosomes were then stained with LysoTracker® Red, detected by fluorescent imaging as described hereinabove, and quantified using EZQuant software. […]

A549 cells [3] = assay: Live cell fluorescent imaging (lysosomal localization and photodestruction); type: cell-based, Human; settings: 470 nm microscope illumination
Protocol: (§1) Lysosomes and mitochondria were stained by incubating the cells 100 nM LysoTracker® Red or 100 nM MitoTracker® Red, respectively, for 1 hour. For subcellular localization of C-1330, cells were also stained with 10 μM C-1330 for 30 minutes.
(§2) Nuclear staining was performed prior to fluorescence imaging by replacing the growth medium with medium containing 2 μg/ml Hoechst 33342, followed by incubation for 10 minutes. Prior to nuclear staining, A549/K1.5 cells were incubated for 1 hour with 10 μM fumitremorgin C (FTC) to prevent efflux of Hoechst 33342 by ABCG2.
(§3) Live cell fluorescent imaging was performed using an Axiovert 200 inverted fluorescence microscope (Carl Zeiss) equipped with a digital camera. […] Light intensity was maintained at 12.5% of the maximum. The magnification used was ×630.
(§4) Cells were pre-incubated with 10 mM ammonium chloride for 30 minutes or with 1 μM bafilomycin A1 for 60 minutes, prior to being incubated with 10 μM C-1330 for 30 minutes as described hereinabove. Ammonium chloride and bafilomycin A1 remained present during the incubation with C-1330.
Monolayers of A549 cells were grown in glass-bottom plates and were washed in growth medium. The medium was then replaced with a special isotonic balanced salt solution lacking or containing either N,N′-dimethylthiourea (DMTU), a potent hydroxyl radical and hydrogen peroxide scavenger, L-histidine, a hydroxyl radical and singlet oxygen radical (^1O2) scavenger, or sodium azide, a singlet oxygen radical scavenger. The salt solution consisted of 10 mM HEPES pH 7.4, 120 mM NaCl, 5 mM KCl, 1 mM CaCl2, 1 mM MgCl2, and 25 mM glucose. After incubation for 1 hour, C-1330 was added to the aforementioned solution buffer for an additional 30 minutes, during which the scavengers remained present, in order to load lysosomes. The cells were then examined by fluorescent imaging as described hereinabove.

A549/K1.5 cells [4] = assay: as above; type: cell-based, Human; settings: A549/K1.5; 470 nm microscope illumination
Protocol: as §1, §2, §3, §4
A549/K1.5 cells were incubated with 10 μM doxorubicin for 30 minutes, and then observed and illuminated (at 470 nm) by live cell fluorescent imaging as described in the Materials and Methods section. Upon illumination, the cells were photographed every second, in order to observe changes in the cells over time.

A549 cells [5] = assay: Crystal violet staining of illuminated monolayers; type: cell-based, Human; settings: 10 μM 30 min, 470 nm 1 minute, 48 hours after illumination
Protocol: (§5) A549 and A549/K1.5 cells were grown to full confluence on glass-bottom plates and loaded with 10 μM C-1330 for 30 minutes. Before illumination, the spent medium was replaced by fresh medium. Using the inverted fluorescence microscope as a source of illumination, each plate was illuminated for 1 minute at a wavelength of 470 nm, at an intensity of approximately 3 W/m^2. Cells were then incubated at 37° C. for an additional 48 hours. The cells were then washed twice with PBS, fixed with 70% methanol for 10 minutes and stained with a diluted dye solution (1:5) of crystal violet. Stained monolayer cells were then washed three times with double distilled water. Crystal violet-stained cells were then examined and photographed using an M80 binocular at a x8 magnification (Leica Microsystems GmbH), and by an inverted Cell-Observer microscope, at a x1000 magnification (Carl Zeiss).
(§6) Monolayers of A549 and A549/K1.5 cells were pulse-incubated with C-1330 for 30 minutes, washed with drug-free medium, subjected to illumination for 1 minute with a fluorescence microscope, and incubated for 48 additional hours in growth medium. The confluent monolayers were then washed with PBS, fixed with methanol, and stained with crystal violet. The monolayers were then examined by light microscopy.

A549/K1.5 cells [6] = assay: Crystal violet staining of illuminated monolayers; type: cell-based, Human; settings: 10 μM 30 min, 470 nm 1 minute, 48 hours after illumination
Protocol: as §5, §6

A549 cells [7] = assay: Texas Red-phalloidin staining of F-actin; type: cell-based, Human; settings: 10 μM 30 minutes
Protocol: A549 cells were grown on coverslips in 24-well plates until confluence was reached. Cells were then incubated with 10 μM C-1330 for 30 minutes and then exposed to light for 1 minute, in order to achieve lysosomal photodestruction. Control cells were loaded with C-1330 but were not illuminated. C1330-loaded cells were ether fixed and stained with Texas Red®-X Phalloidin (Life Technologies) with no illumination or stained with Texas Red®-X Phalloidin 2 hours after illumination. Cells were then washed twice with PBS and fixed by adding 4% formaldehyde for 10 minutes at room temperature. Following two additional washes with PBS, 0.1% Triton X-100 was added for 10 minutes, and then washed twice to remove the Triton X-100. Blocking was then achieved using a solution of 20% skim milk and 2.5% fetal calf serum for 20 minutes. At this stage, 5 μl of Texas Red®-X Phalloidin stock solution was added to 0.2 ml of PBS and the samples were incubated for 20 minutes while being protected from light. The samples were finally rinsed to remove excess Texas Red®-X Phalloidin. Coverslips were removed gently from wells and attached onto slides using Fluoromount-G. Fluorescent cells were analyzed by a fluorescence microscope, using an excitation wavelength of 545 nm and an emission wavelength of 605 nm.

A549 cells [8] = assay: XTT cytotoxicity of C-1330 after chloroquine treatment, with and without illumination; type: cell-based, Human; settings: 24 hours
A549 cells [9] = assay: XTT cytotoxicity assay with and without illumination
Protocol: as §7
Cell viability was determined using an XTT (2,3-bis-(2-methoxy-4-nitro-5-sulfophenyl)-2H-tetrazolium-5-carboxanilide) Cell Proliferation Kit (Biological Industries). […] Results are presented as mean values of at least three independent experiments.

[10] = chloroquine 20 (μM), 24 hours, no illumination
[11] = chloroquine 20 (μM), 48 hours, no illumination

CCN(CC)CCNc1ccc2ncn3c4ccc(OC)cc4c(=O)c1c23 [C-1330]
difference in survival of illuminated and non-illuminated cells (A549/K1.5 cells [1]; A549/K1.5, 3 μM): 59% | cell death without illumination at the indicated concentration (LD10) (A549/K1.5 cells [1]; A549/K1.5, FIG. 9B dotted line, no illumination): approximately 10% | cell death with illumination at the indicated concentration (LD70) (A549/K1.5 cells [1]; A549/K1.5, FIG. 9B dotted line, white light): ~70% | Fold sensitization (A549/K1.5 cells [1]; A549/K1.5, control vs illumination): 14 | LD50 Control (A549/K1.5 cells [1]; A549/K1.5, no illumination): 12.269 ± 1.119 µM | Survival at 3000 nM Control (A549/K1.5 cells [1]; A549/K1.5, no illumination): 87 ± 4% | LD50 Illumination (A549/K1.5 cells [1]; A549/K1.5, white light 1 hour (5 J/cm^2)): 850 ± 23 nM | Survival at 3000 nM Illumination (A549/K1.5 cells [1]; A549/K1.5, white light illumination): 28 ± 1% | resistance of A549/K1.5 cells compared to parental A549 cells (A549/K1.5 cells [1]; no illumination): 2.5 fold | cell death without illumination at the indicated concentration (LD10) (A549 cells [2]; 20 μM chloroquine 48 hours, FIG. 12C dotted line, no illumination): approximately 10% | cell death with illumination at the indicated concentration (LD90) (A549 cells [2]; 20 μM chloroquine 48 hours, FIG. 12C dotted line, white light): ~90% | Fold sensitization (A549 cells [2]; chloroquine 20 (nM), 24 hours): 23 | Fold sensitization (A549 cells [2]; chloroquine 20 (nM), 48 hours): 49 | C-1330 LD50 Illumination (A549 cells [2]; chloroquine 20 (μM), 24 hours): 0.648 ± 0.065 µM | Survival at 3000 nM Illumination (A549 cells [2]; chloroquine 20 (μM), 24 hours): 29% and 29 ± 07% | C-1330 LD50 Control (A549 cells [2]; [10]): 15.222 ± 0.378 µM | Survival at 3000 nM Control (A549 cells [2]; [10]): 79% and 79 ± 5% | C-1330 LD50 Illumination (A549 cells [2]; chloroquine 20 (μM), 48 hours): 0.7 ± 0.043 µM | Survival at 3000 nM Illumination (A549 cells [2]; chloroquine 20 (μM), 48 hours): 9% and 9 ± 3% | C-1330 LD50 Control (A549 cells [2]; [11]): 34.137 ± 3.084 µM | Survival at 3000 nM Control (A549 cells [2]; [11]): 88% and 88 ± 8% | Fold sensitization (A549 cells [2]; chloroquine 50 (nM), 24 hours): 31 | Survival at 3000 nM Illumination (A549 cells [2]; chloroquine 50 (μM), 24 hours): 23 ± 2% | C-1330 LD50 Control (A549 cells [2]; chloroquine 50 (μM), 24 hours, no illumination): 19.609 ± 2.454 µM | Fold sensitization (A549 cells [2]; chloroquine 100 (nM), 24 hours): 30 | Survival at 3000 nM Illumination (A549 cells [2]; chloroquine 100 (μM), 24 hours): 19 ± 3% | Survival at 3000 nM Control (A549 cells [2]; chloroquine 100 (μM), 24 hours, no illumination): 90 ± 9% | lysosomal photodestruction upon blue light illumination (A549 cells [3]): continuous disappearance of lysosomes | lysosomal photodestruction upon blue light illumination (A549/K1.5 cells [4]): continuous disappearance of lysosomes | appearance of illuminated area of monolayer (crystal violet) (A549 cells [5]): region of lysed cells | appearance of illuminated area of monolayer (crystal violet) (A549/K1.5 cells [6]): region of lysed cells | actin cytoskeleton after illumination (A549 cells [7]; 2 hours after illumination): devoid of cytoplasmic content and actin cytoskeleton | actin cytoskeleton without illumination (A549 cells [7]; no illumination): retained a normal actin cytoskeleton | C-1330 LD50 Illumination (A549 cells [8]; chloroquine 50 (μM)): 0.637 ± 0.174 µM | Survival at 3000 nM Control (A549 cells [8]; chloroquine 50 (μM), no illumination): 92 ± 7% | C-1330 LD50 Illumination (A549 cells [8]; chloroquine 100 (μM)): 0.498 ± 0.064 µM | C-1330 LD50 Control (A549 cells [8]; chloroquine 100 (μM), no illumination): 15.048 ± 2.886 µM | difference in survival of illuminated and non-illuminated cells (A549 cells [9]; 3 μM): 29% | Fold sensitization (A549 cells [9]; control vs illumination): 6 | Survival at 3000 nM Control (A549 cells [9]; no illumination): 72% and 72 ± 5% | LD50 Control (A549 cells [9]; no illumination, 2 h drug, XTT 24 h later): 5.023 ± 0.716 µM | LD50 Illumination (A549 cells [9]; white light 1 hour (5 J/cm^2)): 842 ± 208 nM | Survival at 3000 nM Illumination (A549 cells [9]; white light illumination): 43% and 43 ± 6%
